Measurements published in paper PMC6713143, “Design, synthesis and biological activity of selective hCAs inhibitors based on 2-(benzylsulfinyl)benzoic acid scaffold” (Journal of Enzyme Inhibition and Medicinal Chemistry, 2019).
pKi: −log10 of the molar value.

Key:
Format in all cases: biochemical
Details in all cases: mean from three determinations, errors 5–10%
hCA II = target: T1, hCA II (Homo sapiens, UniProt P00918); assay: stopped-flow CO2 hydrase assay, hCA II
T1 construct: made in house
Experimental: (§1) An Applied Photophysics stopped-flow instrument has been used for assaying the CA catalysed CO2 hydration activity. […] The CO2 concentrations ranged from 1.7 to 17 mM for the determination of the kinetic parameters and inhibition constants. In particular, CO2 was bubbled in distilled deionised water for 30 min till saturation. A CO2 kit (Sigma, Milan, Italy) was used to measure the concentration in serially diluted solutions from the saturated one at the same temperature. […] The uncatalyzed rates were determined in the same manner and subtracted from the total observed rates. Stock solutions of inhibitor (1 µM) were prepared in distilled-deionised water and dilutions up to 0.1 nM were done thereafter with the assay buffer. […] The inhibition constants were obtained by non-linear least-squares methods using PRISM 3 and the Cheng-Prusoff equation[29], and represent the average from at least three different determinations. All recombinant CA isoforms were obtained in-house as previously reported[30]^,[31].

hCA XII = target: T2, hCA XII (Homo sapiens, UniProt O43570); assay: stopped-flow CO2 hydrase assay, hCA XII
T2 construct: made in house
Experimental: as §1

hCA IX = target: T3, hCA IX (Homo sapiens, UniProt Q16790); assay: stopped-flow CO2 hydrase assay, hCA IX
T3 construct: made in house
Experimental: as §1

hCA I = target: T4, hCA I (Homo sapiens, UniProt P00915); assay: stopped-flow CO2 hydrase assay, hCA I
T4 construct: made in house
Experimental: as §1

T2 sequence (O43570 25-354): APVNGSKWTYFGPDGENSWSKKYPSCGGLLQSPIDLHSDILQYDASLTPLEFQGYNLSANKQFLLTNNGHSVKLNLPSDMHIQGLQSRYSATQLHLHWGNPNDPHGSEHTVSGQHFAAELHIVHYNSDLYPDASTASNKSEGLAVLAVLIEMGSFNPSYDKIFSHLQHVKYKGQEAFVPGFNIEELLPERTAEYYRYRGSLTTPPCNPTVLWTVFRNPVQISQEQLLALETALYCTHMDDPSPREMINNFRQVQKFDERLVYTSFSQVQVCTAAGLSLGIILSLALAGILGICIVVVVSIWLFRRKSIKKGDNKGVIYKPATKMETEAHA
T4 sequence (P00915 whole entry): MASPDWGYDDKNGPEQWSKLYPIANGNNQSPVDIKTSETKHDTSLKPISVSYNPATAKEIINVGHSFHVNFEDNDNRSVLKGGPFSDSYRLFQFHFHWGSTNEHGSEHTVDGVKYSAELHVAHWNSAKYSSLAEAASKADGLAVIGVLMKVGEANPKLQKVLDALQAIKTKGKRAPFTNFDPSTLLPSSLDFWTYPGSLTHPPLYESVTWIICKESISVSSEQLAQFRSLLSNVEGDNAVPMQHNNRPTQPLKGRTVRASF

SMILES | pKi (hCA II) | pKi (hCA XII) | pKi (hCA IX) | pKi (hCA I) | Ki hCA II (hCA II) | Ki hCA IX (hCA IX) | Ki hCA I (hCA I)
CCC[S+]([O-])c1ccccc1C(N)=O (centres unmarked) [Compound 31] | < 4.00 | < 4.00 | 4.42 | < 4.00 | – | – | –
COC(=O)c1ccccc1S(=O)(=O)Cc1ccccc1 [Compound 9] | < 4.00 | – | 4.94 | < 4.00 | – | – | –
CCCCC[S+]([O-])c1ccccc1C(=O)OC (centres unmarked) [Compound 23] | < 4.00 | – | < 4.00 | < 4.00 | inactive | inactive | inactive
O=C(O)c1ccccc1S(=O)(=O)Cc1ccccc1 [Compound 6] | < 4.00 | – | 5.64 | < 4.00 | – | – | –
CC(=O)c1ccccc1[S+]([O-])Cc1ccccc1 (centres unmarked) [Compound 2] | 4.20 | – | 5.70 | < 4.00 | – | – | –
O=C(O)c1ccccc1[S@@+]([O-])Cc1ccccc1 [(S)-5] | 7.03 | – | 5.92 | < 4.00 | – | – | –
O=C(O)c1ccccc1[S@+]([O-])Cc1ccccc1 [(R)-5] | 6.68 | – | 5.85 | < 4.00 | – | – | –
NC(=O)c1ccccc1S(=O)(=O)Cc1ccccc1 [Compound 18] | 5.57 | 7.18 | < 5.00 | < 5.00 | – | completely lost the affinity | –
CCCC[S+]([O-])c1ccccc1C(=O)OC (centres unmarked) [Compound 22] | < 4.00 | – | < 4.00 | < 4.00 | inactive | inactive | inactive
CCS(=O)(=O)c1ccccc1C(N)=O [Compound 29] | < 4.00 | < 4.00 | 4.64 | < 4.00 | – | – | –
CSc1ccccc1C(N)=O [Compound 24] | < 4.00 | < 4.00 | 5.19 | < 4.00 | – | – | –
CC(=O)c1ccccc1NCc1ccccc1 [Compound 53] | < 4.00 | < 4.00 | < 4.00 | < 4.00 | – | – | –
CC[S+]([O-])c1ccccc1C(N)=O (centres unmarked) [Compound 28] | < 4.00 | < 4.00 | 4.39 | < 4.00 | – | – | –
CCCCCS(=O)(=O)c1ccccc1C(N)=O [Compound 38] | < 4.00 | < 4.00 | 5.06 | < 4.00 | – | – | –
C[S+]([O-])c1ccccc1C(N)=O (centres unmarked) [Compound 25] | < 4.00 | < 4.00 | 4.46 | < 4.00 | – | – | –
COC(=O)c1ccccc1[S@+]([O-])Cc1ccc(Cl)cc1 [(R)-11] | < 4.00 | – | 5.85 | < 4.00 | – | – | –
CCCCSc1ccccc1C(N)=O [Compound 33] | < 4.00 | < 4.00 | 5.60 | < 4.00 | – | – | –
COC(=O)c1ccccc1SCC(=O)c1ccccc1 [Compound 13] | < 4.00 | – | < 4.00 | < 4.00 | – | – | –
CCCCS(=O)(=O)c1ccccc1C(N)=O [Compound 35] | < 4.00 | < 4.00 | 4.87 | < 4.00 | – | – | –
CCSc1ccccc1C(N)=O [Compound 27] | < 4.00 | < 4.00 | 4.78 | < 4.00 | – | – | –
COC(=O)c1ccccc1NCc1ccccc1 [Compound 45] | < 4.00 | < 4.00 | < 4.00 | < 4.00 | – | – | –
O=C(NO)c1ccccc1NCc1ccccc1 [Compound 51] | < 4.00 | < 4.00 | < 4.00 | < 4.00 | – | – | –
CCCCC[S+]([O-])c1ccccc1C(N)=O (centres unmarked) [Compound 37] | < 4.00 | < 4.00 | 4.56 | < 4.00 | – | – | –
CCCSc1ccccc1C(N)=O [Compound 30] | 4.04 | < 4.00 | < 4.00 | < 4.00 | – | – | –
COC(=O)c1ccccc1SCc1ccc(Cl)cc1 [Compound 10] | 4.34 | – | 6.00 | < 4.00 | – | – | –
O=C(O)c1ccccc1NCc1ccccc1 [Compound 40] | < 4.00 | < 4.00 | < 4.00 | < 4.00 | – | – | –
CNC(=O)c1ccccc1[S@+]([O-])Cc1ccccc1 [(R)-20] | 4.28 | – | 4.64 | < 4.00 | – | – | –
CC(=O)c1ccccc1S(=O)(=O)Cc1ccccc1 [Compound 3] | < 4.00 | – | 4.79 | < 4.00 | – | – | –
